Experimental data: publication PMC4066849 (Structure (London, England : 1993), 2014)

Columns and labels:
Drp1 = Drp1 (Mus musculus, UniProt Q8K1M6); experiment: GTP hydrolysis by purified Drp1; format: biochemical
MiD51 = MiD51 (Mus musculus, UniProt Q8BGV8); experiment: fluorescence anisotropy equilibrium titration; format: binding
MiD51, sequence (Q8BGV8 134-463): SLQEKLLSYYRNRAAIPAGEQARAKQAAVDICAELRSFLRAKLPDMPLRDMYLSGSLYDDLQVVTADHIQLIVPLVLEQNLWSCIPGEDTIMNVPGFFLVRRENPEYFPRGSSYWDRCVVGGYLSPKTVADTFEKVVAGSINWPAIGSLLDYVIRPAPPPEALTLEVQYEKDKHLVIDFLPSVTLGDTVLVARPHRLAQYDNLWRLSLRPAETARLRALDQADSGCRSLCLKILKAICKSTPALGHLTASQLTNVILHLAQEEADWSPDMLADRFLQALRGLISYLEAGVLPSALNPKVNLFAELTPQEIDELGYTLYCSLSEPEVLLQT

Drp1, sequence (Q8K1M6 whole entry): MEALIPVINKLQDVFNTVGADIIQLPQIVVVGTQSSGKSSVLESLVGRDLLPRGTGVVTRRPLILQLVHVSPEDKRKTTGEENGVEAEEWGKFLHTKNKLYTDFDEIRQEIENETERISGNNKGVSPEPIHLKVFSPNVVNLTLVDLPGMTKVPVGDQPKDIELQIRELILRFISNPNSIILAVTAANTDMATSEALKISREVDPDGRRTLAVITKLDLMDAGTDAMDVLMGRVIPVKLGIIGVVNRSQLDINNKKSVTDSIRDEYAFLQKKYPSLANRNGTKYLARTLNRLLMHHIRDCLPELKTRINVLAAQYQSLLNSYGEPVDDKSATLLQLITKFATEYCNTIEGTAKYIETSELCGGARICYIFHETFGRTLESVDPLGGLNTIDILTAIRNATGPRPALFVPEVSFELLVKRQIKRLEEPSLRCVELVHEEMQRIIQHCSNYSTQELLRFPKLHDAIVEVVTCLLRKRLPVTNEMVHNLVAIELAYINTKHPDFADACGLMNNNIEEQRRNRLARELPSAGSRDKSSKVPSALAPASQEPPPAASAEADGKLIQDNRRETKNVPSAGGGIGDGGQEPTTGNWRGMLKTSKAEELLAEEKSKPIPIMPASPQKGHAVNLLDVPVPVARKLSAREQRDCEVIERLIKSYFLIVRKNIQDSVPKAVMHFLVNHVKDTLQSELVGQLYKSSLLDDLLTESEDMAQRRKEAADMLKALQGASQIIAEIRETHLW

Structure (SMILES)	GTP hydrolysis by purified Drp1 ([γ-32P]-GTP, thin-layer chromatography); abolis (Drp1)	Kd (MiD51)
Nc1nc2c(ncn2[C@@H]2O[C@H](COP(=O)(O)OP(=O)(O)OP(=O)(O)O)[C@@H](O)[C@H]2O)c(=O)[nH]1 [GTP]	~ 1.5 molecules of GTP per minute	–
CNc1ccccc1C(=O)O[C@H]1[C@@H](O)[C@H](n2cnc3c(=O)[nH]c(N)nc32)O[C@@H]1COP(=O)(O)OP(=O)(O)O [MANT-GDP]	–	8 µM
